# Laboratory results taken from patent US8802597B2, “Herbicidal pyrimidines” (E I du Pont de Nemours and Company, priority 2003, dated 2014).
# Assays:
# Assay in all cases: Test C pre/postemergence
# Format in all cases: in vivo
# [1] = tested on: Surinam grass (Brachiaria decumbens); settings: for Surinam Grass plant response rating: scale 0 to 100 (0 no effect, 100 complete control)
# In short: (§1)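 Applications: preemergence onto seeded soil and postemergence onto 1- to 4-leaf seedlings, compound carried in non-phytotoxic solvent plus surfactant. Kept in greenhouse 12 to 14 days. Scored visually relative to untreated controls, 0 (no effect) to 100 (complete control).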
# [2] = tested on: cocklebur (Xanthium strumarium); settings: for Cocklebur plant response rating: scale 0 to 100 (0 no effect, 100 complete control)
# In short: as §1
# [3] = tested on: common (oilseed) sunflower (Helianthus annuus); settings: Preemergence
# In short: as §1
# corn (Zea mays) = settings: for Corn plant response rating: scale 0 to 100 (0 no effect, 100 complete control)
# In short: as §1
# [4] = tested on: crabgrass (Digitaria sanguinalis); settings: for Crabgrass plant response rating: scale 0 to 100 (0 no effect, 100 complete control)
# In short: as §1
# [5] = tested on: eastern black nightshade (Solanum ptycanthum); settings: Preemergence
# In short: as §1
# [6] = tested on: giant foxtail (Setaria faberii); settings: for Foxtail, Giant plant response rating: scale 0 to 100 (0 no effect, 100 complete control)
# In short: as §1
# [7] = tested on: johnsongrass (Sorghum halepense); settings: for Johnsongrass plant response rating: scale 0 to 100 (0 no effect, 100 complete control)
# In short: as §1
# kochia (Kochia scoparia) = settings: for Kochia plant response rating: scale 0 to 100 (0 no effect, 100 complete control)
# In short: as §1
# [8] = tested on: lambsquarters (Chenopodium album); settings: for Lambsquarters plant response rating: scale 0 to 100 (0 no effect, 100 complete control)
# In short: as §1
# [9] = tested on: morningglory (Ipomoea coccinea); settings: for Morningglory plant response rating: scale 0 to 100 (0 no effect, 100 complete control)
# In short: as §1
# soybean (Glycine max) = settings: for Soybean plant response rating: scale 0 to 100 (0 no effect, 100 complete control)
# In short: as §1
# [10] = Postemergence, 250 g ai/ha, scale 0 to 100
# [11] = Preemergence, 31 g ai/ha, scale 0 to 100, 0 no effect, 100 complete control
# [12] = Preemergence, 62 g ai/ha, scale 0 to 100, 0 no effect, 100 complete control
# [13] = Preemergence, 125 g ai/ha, scale 0 to 100
# [14] = Preemergence, 250 g ai/ha, scale 0 to 100
# [15] = 62 g ai/ha, scale 0 to 100, 0 no effect, 100 complete control
smiles,measurement,setting,value
CC(C)COC(=O)c1nc(C2CC2)nc(N)c1Br [Compound 17],"Plant response rating (scale of 0 to 100), Surinam Grass","[1]; Postemergence, 31 g ai/ha",0
same,Surinam Grass plant response rating,"[1]; Postemergence, 62 g ai/ha",0
same,Surinam Grass plant response rating,"[1]; Postemergence, 125 g ai/ha",0
same,"Plant response rating, Surinam Grass",[1]; [10],0
same,"Plant response rating, Surinam Grass",[1]; [11],0
same,"Plant response rating, Surinam Grass",[1]; [12],0
same,"Plant response rating, Surinam Grass",[1]; [13],0
same,"Plant response rating, Surinam Grass",[1]; [14],0
same,"Plant response rating (scale of 0 to 100), Cocklebur","[2]; Postemergence, 31 g ai/ha",95
same,Cocklebur plant response rating,"[2]; Postemergence, 62 g ai/ha",100
same,Cocklebur plant response rating,"[2]; Postemergence, 125 g ai/ha",100
same,"Plant response rating, Cocklebur",[2]; [10],100
same,"Plant response rating, Cocklebur",[2]; [11],75
same,"Plant response rating, Cocklebur",[2]; [12],90
same,"Plant response rating, Cocklebur",[2]; [13],95
same,"Plant response rating, Cocklebur",[2]; [14],100
same,"Plant response rating, Sunflower","[3]; 31 g ai/ha, scale 0 to 100, 0 no effect, 100 complete control",60
same,"Plant response rating, Sunflower",[3]; [15],95
same,"Plant response rating, Sunflower","[3]; 125 g ai/ha, scale 0 to 100",100
same,"Plant response rating, Sunflower","[3]; 250 g ai/ha, scale 0 to 100",100
same,"Plant response rating (scale of 0 to 100), Corn","corn (Zea mays); Postemergence, 31 g ai/ha",0
same,Corn plant response rating,"corn (Zea mays); Postemergence, 62 g ai/ha",0
same,Corn plant response rating,"corn (Zea mays); Postemergence, 125 g ai/ha",0
same,"Plant response rating, Corn",corn (Zea mays); [10],20
same,"Plant response rating, Corn",corn (Zea mays); [11],0
same,"Plant response rating, Corn",corn (Zea mays); [12],20
same,"Plant response rating, Corn",corn (Zea mays); [13],35
same,"Plant response rating, Corn",corn (Zea mays); [14],75
same,"Plant response rating (scale of 0 to 100), Crabgrass","[4]; Postemergence, 31 g ai/ha",0
same,Crabgrass plant response rating,"[4]; Postemergence, 62 g ai/ha",0
same,Crabgrass plant response rating,"[4]; Postemergence, 125 g ai/ha",20
same,"Plant response rating, Crabgrass",[4]; [10],65
same,"Plant response rating, Crabgrass",[4]; [11],0
same,"Plant response rating, Crabgrass",[4]; [12],0
same,"Plant response rating, Crabgrass",[4]; [13],20
same,"Plant response rating, Crabgrass",[4]; [14],80
same,"Plant response rating, Nightshade",[5]; [15],80
same,"Plant response rating, Nightshade","[5]; 125 g ai/ha, scale 0 to 100",95
same,"Plant response rating, Nightshade","[5]; 250 g ai/ha, scale 0 to 100",100
same,"Plant response rating (scale of 0 to 100), Foxtail, Giant","[6]; Postemergence, 31 g ai/ha",0
same,"Foxtail, Giant plant response rating","[6]; Postemergence, 62 g ai/ha",0
same,"Foxtail, Giant plant response rating","[6]; Postemergence, 125 g ai/ha",0
same,"Plant response rating, Foxtail, Giant",[6]; [10],35
same,"Plant response rating, Foxtail, Giant",[6]; [11],0
same,"Plant response rating, Foxtail, Giant",[6]; [12],0
same,"Plant response rating, Foxtail, Giant",[6]; [13],20
same,"Plant response rating, Foxtail, Giant",[6]; [14],75
same,"Plant response rating (scale of 0 to 100), Johnsongrass","[7]; Postemergence, 31 g ai/ha",0
same,Johnsongrass plant response rating,"[7]; Postemergence, 62 g ai/ha",0
same,Johnsongrass plant response rating,"[7]; Postemergence, 125 g ai/ha",40
same,"Plant response rating, Johnsongrass",[7]; [10],60
same,"Plant response rating, Johnsongrass",[7]; [11],0
same,"Plant response rating, Johnsongrass",[7]; [12],0
same,"Plant response rating, Johnsongrass",[7]; [13],55
same,"Plant response rating, Johnsongrass",[7]; [14],75
same,"Plant response rating (scale of 0 to 100), Kochia","kochia (Kochia scoparia); Postemergence, 31 g ai/ha",100
same,Kochia plant response rating,"kochia (Kochia scoparia); Postemergence, 62 g ai/ha",100
same,Kochia plant response rating,"kochia (Kochia scoparia); Postemergence, 125 g ai/ha",100
same,"Plant response rating, Kochia",kochia (Kochia scoparia); [10],100
same,"Plant response rating, Kochia",kochia (Kochia scoparia); [11],0
same,"Plant response rating, Kochia",kochia (Kochia scoparia); [12],0
same,"Plant response rating, Kochia",kochia (Kochia scoparia); [13],25
same,"Plant response rating, Kochia",kochia (Kochia scoparia); [14],85
same,"Plant response rating (scale of 0 to 100), Lambsquarters","[8]; Postemergence, 31 g ai/ha",95
same,Lambsquarters plant response rating,"[8]; Postemergence, 62 g ai/ha",100
same,Lambsquarters plant response rating,"[8]; Postemergence, 125 g ai/ha",100
same,"Plant response rating, Lambsquarters",[8]; [10],100
same,"Plant response rating, Lambsquarters",[8]; [11],95
same,"Plant response rating, Lambsquarters",[8]; [12],95
same,"Plant response rating, Lambsquarters",[8]; [13],100
same,"Plant response rating, Lambsquarters",[8]; [14],100
same,"Plant response rating (scale of 0 to 100), Morningglory","[9]; Postemergence, 31 g ai/ha",95
same,Morningglory plant response rating,"[9]; Postemergence, 62 g ai/ha",95
same,Morningglory plant response rating,"[9]; Postemergence, 125 g ai/ha",100
same,"Plant response rating, Morningglory",[9]; [10],100
same,"Plant response rating, Morningglory",[9]; [11],70
same,"Plant response rating, Morningglory",[9]; [12],95
same,"Plant response rating, Morningglory",[9]; [13],100
same,"Plant response rating, Morningglory",[9]; [14],100
same,"Plant response rating (scale of 0 to 100), Soybean","soybean (Glycine max); Postemergence, 31 g ai/ha",85
same,Soybean plant response rating,"soybean (Glycine max); Postemergence, 62 g ai/ha",95
same,Soybean plant response rating,"soybean (Glycine max); Postemergence, 125 g ai/ha",100
same,"Plant response rating, Soybean",soybean (Glycine max); [10],100
same,"Plant response rating, Soybean",soybean (Glycine max); [11],70
same,"Plant response rating, Soybean",soybean (Glycine max); [12],90
same,"Plant response rating, Soybean",soybean (Glycine max); [13],95
same,"Plant response rating, Soybean",soybean (Glycine max); [14],100
